Results as given in EP0755928B1, “5-AMINOFLAVONE DERIVATIVES” (KYOWA HAKKO KOGYO CO., Ltd., priority 1995, dated 1996).

Tests used:
[1] = tested on: Human mammary cancer MCF-7 cell; experiment: Human mammary cancer MCF-7 cell growth inhibition test (neutral red); type: cell-based; conditions: MCF7, MCF-7 cells, 72 hours, medium with 10^-8M estradiol, neutral red absorbance at 550 nm
Description: Human mammary cancer MCF-7 cell growth inhibition test
Each 0.1 ml of MCF-7 cells which had been prepared in a concentration of 5 x 10^4/ml using a medium prepared by adding 10% bovine fetal serum, 10^-8M estradiol (manufactured by Sigma), 100 units/ml penicillin and 100 µg/ml streptomycin to RPMI1640 medium (referred to as Medium B hereinafter) was distributed in each well of 96 well-microtiter plate. […] The supernatant was removed, each 0.1 ml of Medium B containing 0.02% neutral red was added to the residue, the mixture was allowed to stand at 37 °C for 1 hour in a CO2 gas incubator and the cells were stained by neutral red dye. The supernatant was removed and the residue was washed once with a physiological saline. Then, the dye was extracted with 0.001 N hydrochloric acid/30% ethanol and the absorbance at 550 nm was determined with a microplatereader.

[2] = tested on: estrogen-dependent human mammary cancer MCF-7; experiment: Antitumor effects against estrogen-dependent human mammary cancer MCF-7 transplanted in nude mice; type: in vivo, female BALB/c-nu/nu mouse; conditions: Mus musculus, MCF7, po; dose 25 mg/kg orally, 5 days per week for two weeks; ratio of V/V0 of treated group to control group; judgement date day 14 to 25, differs per compound; read-out: T/C
Excerpt: Antitumor effects against estrogen-dependent human mammary cancer MCF-7
The tumor fragment (2 mm x 2 mm x 2mm) of human hormone dependent mammary cancer MCF-7 was transplanted subcutaneously in the flank of female BALB/c-nu/nu mouse (Nihon Crea), 7 to 9 weeks age. […] Mice having the tumor volume 25 to 200 mm^3 were selected 3 to 4 weeks after transplantation, and the test compounds were orally administered repeatedly to the groups (5 animals per group) for 5 days per a week, for total two weeks. In addition, estradiol propionate was administered again on the date of initial administration of the test compounds. Length and width of the tumor were determined every day, and the tumor volumes were calculated by means of ellipsoid approximation according to the following equation: […] [formula]
The tumor volume at initial administration (V0) and on the day of judgement (V) was calculated, and the tumor growth rate (V/V0) was calculated. T/C value was obtained as the ratio of V/V0 value of treated group relative to that of control group.

[3] = tested on: Mature female BALB/c mice; experiment: Effect on uterus weight of mature mouse (anti-estrogenic activity); type: in vivo; conditions: dose 25 mg/kg, orally, repeatedly for 4 days; uteri isolated after 5 days; not treated group 106 mg
Description: The effect against the decrease in uterus weight of mature mouse
Mature female BALB/c mice, 9 weeks age, were divided into two groups (6 animals per group). The test compounds were repeatedly administered orally to one group for 4 days. After 5 days, the uteri were isolated and the weight thereof was measured.

| Structure (SMILES) | IC50 [1] [nM] | response vs control in vivo at 25 mg/kg [2] [%] | weight of uterus [3] [mg] |
| --- | --- | --- | --- |
| COC(=O)CNCC(=O)OCc1c(F)c(N)c2c(=O)cc(-c3ccc(N)c(F)c3)oc2c1F [Compound 14, 5-Amino-2-(4-amino-3-fluorophenyl)-6,8-difluoro-7-methoxycarbonylmethylaminoacetoxymethyl-4H-1-benzopyran-4-one] | 13 | 1.3 | – |
| Nc1ccc(-c2cc(=O)c3c(N)c(F)c(COC(=O)CN4CCOCC4)c(F)c3o2)cc1F [Compound 11, 5-Amino-2-(4-amino-3-fluorophenyl)-6,8-difluoro-7-morpholinoacetoxymethyl-4H-1-benzopyran-4-one] | 17 | 4.4 | – |
| CN(C)CCN(C)CC(=O)OCc1c(F)c(N)c2c(=O)cc(-c3ccc(N)c(F)c3)oc2c1F [Compound 13, 5-Amino-2-(4-amino-3-fluorophenyl)-7-[N-(2-dimethylaminoethyl)-N-methylamino)acetoxymethyl-6,8-difluoro-4H-1-benzopyran-4-one] | – | 2.2 | – |
| Nc1ccc(-c2cc(=O)c3c(N)c(F)c(COC(=O)CN4CCC(O)CC4)c(F)c3o2)cc1F [Compound 12, 5-Amino-2-(4-amino-3-fluorophenyl) -6,8-difluoro-7-(4-hydroxypiperidino)acetoxymethyl-4H-1-benzopyran-4-one] | 18 | 3.5 | – |
| C=CCOC(=O)OCc1c(F)c(N)c2c(=O)cc(-c3ccc(N)c(F)c3)oc2c1F [Compound 15, 7-Allyloxycarbonyloxymethyl-5-amino-2-(4-amino-3-fluorophenyl)-6,8-difluoro-4H-1-benzopyran-4-one] | 81 | – | – |
| CN1CCN(CC(=O)OCc2c(F)c(N)c3c(=O)cc(-c4ccc(N)c(F)c4)oc3c2F)CC1 [Compound 10, 5-Amino-2-(4-amino-3-fluorophenyl)-6,8-difluoro-7-(4-methylpiperazinyl)acetoxymethyl-4H-1-benzopyran-4-one] | 87 | 7 | – |
| CCN(CC)C(=O)OCc1c(F)c(N)c2c(=O)cc(-c3ccc(N)c(F)c3)oc2c1F [Compound 1, 5-Amino-2-(4-amino-3-fluorophenyl)-7-diethylcarbamoyloxymethyl-6,8-difluoro-4H-1-benzopyran-4-one] | 350 | – | – |
| CN(C)CCC(=O)OCc1c(F)c(N)c2c(=O)cc(-c3ccc(N)c(F)c3)oc2c1F [Compound 7, 5-Amino-2-(4-amino-3-fluorophenyl)-7-(3-dimethylaminopropionyl) oxymethyl-6,8-difluoro-4H-1-benzopyran-4-one] | 19 | 4.1 | – |
| CN1CCN(C(=O)OCc2c(F)c(N)c3c(=O)cc(-c4ccc(N)c(F)c4)oc3c2F)CC1 [Compound 2, 5-Amino-2-(4-amino-3-fluorophenyl)-6,8-difluoro-7-(4-methylpiperazinyl)carbonyloxymethyl-4H-1-benzopyran-4-one] | 230 | – | – |
| CN(C)CC(=O)OCc1c(F)c(N)c2c(=O)cc(-c3ccc(N)c(F)c3)oc2c1F [Compound 6, 5-Amino-2-(4-amino-3-fluorophenyl) -7-dimethylaminoacetoxymethyl-6,8-difluoro-4H-1-benzopyran-4-one] | 26 | 1.2 | 67 |
| Nc1ccc(-c2cc(=O)c3c(N)c(F)c(COC(=O)CN4CCCCC4)c(F)c3o2)cc1F [Compound 9, 5-Amino-2-(4-amino-3-fluorophenyl)-6,8-difluoro-7-piperidinoacetoxymethyl-4H-1-benzopyran-4-one] | 33 | 4.2 | – |
| CN(C)CCCC(=O)OCc1c(F)c(N)c2c(=O)cc(-c3ccc(N)c(F)c3)oc2c1F [Compound 8, 5-A-mino-2-(4-amino-3-fluorophenyl)-7-(4-dimethylaminobutyryl)oxymethyl-6,8-difluoro-4H-1-benzopyran-4-one] | 29 | 15 | – |
